Measurements taken from publication PMC8766756, “Insights on Cancer Cell Inhibition, Subcellular Activities, and Kinase Profile of Phenylacetamides Pending 1H-Imidazol-5-One Variants” (Frontiers in Pharmacology, 2022).
“And” between values parts separate entries of the source, which are not always exact repeats. Identical values can stand only once.

Key:
Assay in all cases: PamChip tyrosine kinase microarray
Assay type in all cases: biochemical
Settings in all cases: 0.1 µM, HL60 lysate
EphA8 (P29322) = target: T1, EphA8 (P29322) (Homo sapiens, UniProt P29322)
T1 construct: purchased PamGene (PamChip PTK array, Upstream Kinase Analysis)
T1 sequence (P29322 28-1005): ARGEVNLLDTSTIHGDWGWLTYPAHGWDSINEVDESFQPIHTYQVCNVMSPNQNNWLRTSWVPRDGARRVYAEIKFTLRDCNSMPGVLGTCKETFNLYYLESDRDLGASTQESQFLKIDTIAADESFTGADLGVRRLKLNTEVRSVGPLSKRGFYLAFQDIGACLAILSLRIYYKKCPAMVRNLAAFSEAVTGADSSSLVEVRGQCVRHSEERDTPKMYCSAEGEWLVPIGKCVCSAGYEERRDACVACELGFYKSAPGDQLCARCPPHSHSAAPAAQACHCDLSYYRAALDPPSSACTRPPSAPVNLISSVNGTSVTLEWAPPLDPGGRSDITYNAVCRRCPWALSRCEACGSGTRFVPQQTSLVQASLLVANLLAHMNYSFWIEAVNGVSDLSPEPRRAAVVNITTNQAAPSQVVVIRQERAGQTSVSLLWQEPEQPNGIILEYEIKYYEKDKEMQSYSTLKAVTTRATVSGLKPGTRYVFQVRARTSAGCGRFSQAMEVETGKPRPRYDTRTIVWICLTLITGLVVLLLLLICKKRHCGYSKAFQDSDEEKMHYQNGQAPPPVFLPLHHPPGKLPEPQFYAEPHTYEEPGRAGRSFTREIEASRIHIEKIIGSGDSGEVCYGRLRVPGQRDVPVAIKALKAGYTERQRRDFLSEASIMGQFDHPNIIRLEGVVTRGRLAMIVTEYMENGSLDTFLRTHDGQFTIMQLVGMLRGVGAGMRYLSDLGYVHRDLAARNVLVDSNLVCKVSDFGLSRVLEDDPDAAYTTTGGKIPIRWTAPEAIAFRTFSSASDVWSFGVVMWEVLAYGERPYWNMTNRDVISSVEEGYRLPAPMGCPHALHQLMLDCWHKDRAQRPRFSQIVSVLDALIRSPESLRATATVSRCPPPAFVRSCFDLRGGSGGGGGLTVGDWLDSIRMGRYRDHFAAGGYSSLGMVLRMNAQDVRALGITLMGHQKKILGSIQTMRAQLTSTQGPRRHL
How it was run: (§1)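 HL60 (AML) cell lysate was spiked with compound at 0.001, 0.01, 0.1, 1, 10 and 50 µM, or 2% v/v DMSO as control, then profiled in technical replicates on a tyrosine kinase peptide array of 196 phosphosites. Kinase activity was inferred from peptide-set changes using an upstream kinase tool.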

KDR (P35968) = target: T2, KDR (P35968) (Homo sapiens, UniProt P35968)
T2 construct: purchased PamGene (PamChip PTK array, Upstream Kinase Analysis)
T2 sequence (P35968 20-1356): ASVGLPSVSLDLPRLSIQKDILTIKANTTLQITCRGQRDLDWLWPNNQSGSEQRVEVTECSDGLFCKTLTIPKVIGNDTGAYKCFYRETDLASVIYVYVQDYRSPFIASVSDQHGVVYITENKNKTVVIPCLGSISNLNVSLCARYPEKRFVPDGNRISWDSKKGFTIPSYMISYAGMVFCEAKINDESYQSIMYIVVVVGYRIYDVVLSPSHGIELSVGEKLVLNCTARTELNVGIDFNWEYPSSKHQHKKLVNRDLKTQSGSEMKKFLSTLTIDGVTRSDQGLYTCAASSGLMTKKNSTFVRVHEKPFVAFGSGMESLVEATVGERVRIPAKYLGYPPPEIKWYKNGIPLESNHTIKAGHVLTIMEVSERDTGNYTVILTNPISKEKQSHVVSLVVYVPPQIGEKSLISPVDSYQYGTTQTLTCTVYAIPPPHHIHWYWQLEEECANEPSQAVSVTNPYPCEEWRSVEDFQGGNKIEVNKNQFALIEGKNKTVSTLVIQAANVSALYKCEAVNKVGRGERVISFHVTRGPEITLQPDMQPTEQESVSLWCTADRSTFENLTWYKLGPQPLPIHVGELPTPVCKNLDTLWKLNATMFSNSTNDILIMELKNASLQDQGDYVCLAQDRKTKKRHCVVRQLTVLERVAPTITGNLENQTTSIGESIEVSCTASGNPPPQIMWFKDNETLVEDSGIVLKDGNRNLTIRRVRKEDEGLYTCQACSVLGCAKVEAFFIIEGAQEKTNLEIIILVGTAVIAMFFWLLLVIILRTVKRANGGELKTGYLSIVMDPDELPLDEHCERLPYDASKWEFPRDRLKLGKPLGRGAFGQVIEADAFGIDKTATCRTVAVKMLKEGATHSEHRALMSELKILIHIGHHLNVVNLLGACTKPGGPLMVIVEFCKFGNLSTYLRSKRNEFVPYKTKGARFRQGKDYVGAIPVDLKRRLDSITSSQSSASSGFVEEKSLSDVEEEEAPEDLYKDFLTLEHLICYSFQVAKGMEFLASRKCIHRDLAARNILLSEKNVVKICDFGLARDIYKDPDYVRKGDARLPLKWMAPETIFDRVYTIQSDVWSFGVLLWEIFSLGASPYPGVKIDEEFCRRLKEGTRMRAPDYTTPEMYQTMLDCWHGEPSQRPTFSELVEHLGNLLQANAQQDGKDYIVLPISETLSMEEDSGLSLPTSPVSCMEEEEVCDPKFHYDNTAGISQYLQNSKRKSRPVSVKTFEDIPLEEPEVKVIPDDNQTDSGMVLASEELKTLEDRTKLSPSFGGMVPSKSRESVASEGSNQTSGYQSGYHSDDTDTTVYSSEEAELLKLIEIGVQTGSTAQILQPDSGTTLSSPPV
How it was run: as §1

Tyro3/Sky (Q06418) = target: T3, Tyro3/Sky (Q06418) (Homo sapiens, UniProt Q06418)
T3 construct: purchased PamGene (PamChip PTK array, Upstream Kinase Analysis)
T3 sequence (Q06418 41-890): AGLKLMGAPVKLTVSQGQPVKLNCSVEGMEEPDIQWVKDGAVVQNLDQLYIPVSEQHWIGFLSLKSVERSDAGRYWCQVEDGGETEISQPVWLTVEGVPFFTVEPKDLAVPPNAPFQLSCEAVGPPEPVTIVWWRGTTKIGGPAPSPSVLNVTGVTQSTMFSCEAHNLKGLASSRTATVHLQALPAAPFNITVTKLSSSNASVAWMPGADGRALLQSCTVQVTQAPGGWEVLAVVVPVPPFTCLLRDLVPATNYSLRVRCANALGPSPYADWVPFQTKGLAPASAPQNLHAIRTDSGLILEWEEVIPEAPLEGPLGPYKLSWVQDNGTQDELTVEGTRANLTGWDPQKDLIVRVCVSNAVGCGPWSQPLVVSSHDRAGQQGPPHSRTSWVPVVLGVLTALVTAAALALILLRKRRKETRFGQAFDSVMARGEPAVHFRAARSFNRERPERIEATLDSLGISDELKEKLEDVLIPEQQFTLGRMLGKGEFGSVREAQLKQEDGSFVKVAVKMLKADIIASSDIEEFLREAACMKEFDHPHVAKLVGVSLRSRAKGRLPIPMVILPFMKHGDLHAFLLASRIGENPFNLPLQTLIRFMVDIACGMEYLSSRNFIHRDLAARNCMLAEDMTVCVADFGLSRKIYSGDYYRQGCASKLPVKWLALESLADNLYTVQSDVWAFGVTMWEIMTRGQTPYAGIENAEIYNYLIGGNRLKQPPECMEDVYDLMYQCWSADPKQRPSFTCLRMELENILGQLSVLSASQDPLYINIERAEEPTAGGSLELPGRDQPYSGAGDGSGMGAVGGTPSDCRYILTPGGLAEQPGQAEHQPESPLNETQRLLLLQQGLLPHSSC
How it was run: as §1

Compound: COc1ccc(/C=C2\N=C(C)N(c3ccc(CC(=O)NCc4ccccc4)cc3)C2=O)cc1 [Compound 4c, (Z)-N-Benzyl-2-(4-(4-(4-methoxybenzylidene)-2-methyl-5-oxo-4,5-dihydro-1H-imidazol-1-yl)phenyl)acetamide]
- Mean Final score (Kinase score) (EphA8 (P29322)): 2.201
- Mean Kinase Statistic (EphA8 (P29322)): -0.925
- Mean Significance Score (EphA8 (P29322)): 1.989
- Mean Specificity Score (EphA8 (P29322)): 0.1251
- Mean Final score (Kinase score) (KDR (P35968)): 2.535
- Mean Kinase Statistic (KDR (P35968)): -1.256
- Mean Significance Score (KDR (P35968)): 2.048
- Mean Specificity Score (KDR (P35968)): 0.5472
- Mean Significance Score (Tyro3/Sky (Q06418)): 2.048
- Mean Specificity Score (Tyro3/Sky (Q06418)): 1.177
- Mean Final score (Kinase score) (Tyro3/Sky (Q06418); listed as KIM-161): 3.29 and 3.287
